Measurements reported in ChEMBL document CHEMBL1135014, “Synthesis, radiolabeling and preliminary biological evaluation of radiolabeled 5-methyl-6-nitroquipazine, a potential radioligand for the serotonin transporter” (Bioorg Med Chem Lett, 2002).

Columns and labels:
[1] = molecular target: Sodium-dependent serotonin transporter (Rattus norvegicus, UniProt P31652); assay: Binding affinity of the radio labeled [3H]5-Methyl-6-nitroquipazine compound against Serotonin transporter in rat frontal cortex homogenates; assay type: tissue-based
[2] = molecular target: Sodium-dependent serotonin transporter (Rattus norvegicus) (UniProt P31652); assay: Enzyme kinetic constant, Bmax was evaluated against Serotonin transporter
Sequence of Sodium-dependent serotonin transporter (Rattus norvegicus) (P31652 whole entry): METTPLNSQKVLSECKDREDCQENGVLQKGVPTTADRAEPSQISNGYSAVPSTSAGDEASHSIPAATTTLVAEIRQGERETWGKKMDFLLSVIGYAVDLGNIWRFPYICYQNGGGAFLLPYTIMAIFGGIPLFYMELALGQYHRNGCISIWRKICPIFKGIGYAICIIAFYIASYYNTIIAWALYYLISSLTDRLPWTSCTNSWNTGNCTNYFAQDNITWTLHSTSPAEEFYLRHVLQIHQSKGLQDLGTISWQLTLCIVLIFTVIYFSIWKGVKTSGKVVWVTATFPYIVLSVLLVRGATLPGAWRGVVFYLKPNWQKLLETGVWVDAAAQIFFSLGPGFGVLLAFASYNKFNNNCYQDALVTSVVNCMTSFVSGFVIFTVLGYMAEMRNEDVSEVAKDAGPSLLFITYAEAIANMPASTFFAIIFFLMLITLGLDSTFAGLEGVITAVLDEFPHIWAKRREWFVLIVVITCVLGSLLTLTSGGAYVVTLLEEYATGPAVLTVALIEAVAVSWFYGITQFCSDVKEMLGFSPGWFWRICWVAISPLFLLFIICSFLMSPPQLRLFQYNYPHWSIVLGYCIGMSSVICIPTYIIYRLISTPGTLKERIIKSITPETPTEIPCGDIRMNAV

Sequence of Sodium-dependent serotonin transporter (P31652 whole entry): as above

Question: Which results are given for `Cc1c([N+](=O)[O-])ccc2nc(N3CCNCC3)ccc12`?
Answer: Kd [1]: 0.051 nM; Bmax [2]: 1530 fmol/mg

Question: `O=[N+]([O-])c1ccc2nc(N3CCNCC3)ccc2c1` [6-NITROQUIPAZINE] was tested. Which Kd [1] did it give?
Answer: 0.051 nM

Question: What about the Bmax [2] of the same compound?
Answer: 1530 fmol/mg
